Laboratory results taken from patent US6984718B2, “Fluorescence dyes and their applications for whole-cell fluorescence screening assays for caspases, peptidases, proteases and other enzymes and the use thereof” (Cytovia, Inc., priority 1998, dated 2006).

How the values were obtained:
[1] = target: T1, recombinant caspase-3 (Homo sapiens, UniProt P42574); experiment: Cleavage of fluorogenic substrate by recombinant caspase-3, cell-free; type: biochemical
T1 sequence (P42574 29-175 limits assumed): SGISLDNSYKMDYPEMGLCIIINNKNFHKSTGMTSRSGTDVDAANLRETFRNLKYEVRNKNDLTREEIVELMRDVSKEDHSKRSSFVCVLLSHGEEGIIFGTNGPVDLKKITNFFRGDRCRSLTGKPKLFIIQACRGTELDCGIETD
T1 sequence (P42574 176-277 limits assumed): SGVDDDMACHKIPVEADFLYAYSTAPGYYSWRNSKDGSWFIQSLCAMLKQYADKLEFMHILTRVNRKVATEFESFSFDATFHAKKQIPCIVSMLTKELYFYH
Method: The cleavage of N-(Ac-DEVD)-N′-(2,3,4,5-tetrafluorobenzoyl)-R110 (SEQ ID NO:5) (Ac-DEVD-R110-TFB) (SEQ ID NO:5) by caspase-3 was tested in a cell-free assay using recombinant enzyme. 10 μM of substrate was incubated with recombinant caspase-3 for 3 hours at 37° C. Control reactions included one sample with no enzyme (Background value) and one sample incubated in the presence of the caspase inhibitor, Ac-DEVD-CHO (SEQ ID NO:5) (Non-specific value).

[2] = tested on: Jurkat T leukemia cells; experiment: Whole cell assay: cleavage of caspase-3 substrate in apoptotic Jurkat cells, flow cytometry; type: cell-based, human
Method: Jurkat T leukemia cells were grown in RPMI 1640 media (Life Technologies, Inc.) +10% FCS (Sigma Chemical Company) in a 5% CO2-95% humidity incubator at 37° C., and maintained at a cell density between 4 and 8×10^5 cells/ml. Cells were harvested at 200×g and resuspended at 1×10^6 cells/ml into RPMI 1640 media containing 10% FCS and 1 ml each were dispensed in 2-wells of a 6-well plate. The apoptosis inducer staurosporine was added at 0.5 μg/ml concentration and the plate was incubated for 2 hrs at 37° C. in a 5% CO2-95% humidity incubator. Cells were pelleted and incubated with 50 μM of substrate Ac-DEVD-R110-TFB (SEQ ID NO:5) for 2 hrs at 37° C. in serum-free RPMI medium. 500 μl PBS was added and samples were analyzed by flow cytometry. All flow cytometry analyses were performed on a FACScalibur (Becton Dickinson) using CellQuest analysis software.
The apoptosis inducer anti-Fas antibody (CH-11; MBL) was added at 200 ng/ml concentration and the plate was incubated for 2hrs at 37° C. in a 5% CO2-95% humidity incubator. Cells were pelleted and incubated with 50 μM of substrate Ac-DEVD-R110-TFB (SEQ ID NO:5) for 2 hrs at 37° C. in serum-free RPMI medium. 500 μl PBS was added and samples were analyzed by flow cytometry.
A pan-caspase inhibitor cbz-Val-Asp-fink(see W099/18781) was added to one of the wells. The apoptosis inducer staurosporine was added with and without the caspase inhibitor at 0.5 μg/ml concentration and the plate was incubated for 2 hrs at 37° C. in a 5% CO2-95% humidity incubator. Cells were pelleted and incubated with 50 μM of substrate Ac-DEVD-R110-TFB (SEQ ID NO:5) for 2hr at 37° C. in serum-free RPMI medium. 500 μl PBS was added and samples were analyzed by flow cytometry.

[3] = tested on: aminopeptidases; experiment: Cleavage of substrate by HL-60 cell lysate (aminopeptidases); type: biochemical; conditions: 37° C.; for fluorescent signal after incubation with cell lysate: HL-60 cell lysate
Method: N-Gly-R110-PFB was incubated with a lysate made from HL-60 cells, and the amount of fluorescence was measured at various times after incubation at 37° C. Parallel samples were run using the control substrate, N-Cbz-Gly-R110-PFB.

[4] = tested on: HL-60 cells; experiment: Staining of whole, live HL-60 cells with aminopeptidase substrate; type: cell-based; conditions: 10 μM, 2 hours at 37° C.
Method: HL-60 cells (about 2×10^6) were incubated with 10 μM of N-Gly-R110-PFB for 2 hours at 37° C. in a CO2 incubator. Parallel samples were similarly incubated with the amino terminal-blocked compound, N-Cbz-Gly-R110. At the end of the incubation, the cells were harvested by centrifugation and resuspended in 50 μL of fresh medium without substrate. Aliquots of each cell suspension were placed in microslides and viewed on a Nikon inverted microscope with epifluorescent illumination.

[5] = Fluorescence standard curve of dye under cell-free conditions (fluorescent microplate reader); type: physicochemical
Method: A standard curve consisting of 7 concentrations of N-pentafluorobenzoyl-Rhodamine 110 (0.5 to 20 μM) in a volume of 100 μL was prepared. The fluorescence of each concentration was measured (in triplicate) using a BioTek fluorescent microplate reader, and the signal was plotted as a function of dye concentration. The N-pentafluorobenzoyl-Rhodamine 110 curve was compared to a standard curve of R110 fluorescence prepared in the same way.

[6] = tested on: HL-60 lysates; experiment: Cleavage of Z-DEVD-R110-PFB by HL-60 lysates; type: biochemical

## CC(=O)N[C@@H](CC(=O)O)C(=O)N[C@@H](CCC(=O)O)C(=O)N[C@H](C(=O)N[C@@H](CC(=O)O)C(=O)Nc1ccc2c(c1)Oc1cc(NC(=O)c3cc(F)c(F)c(F)c3F)ccc1C21OC(=O)c2ccccc21)C(C)C (stereo partly drawn) [Ac-DEVD-R110-TFB, N-(Ac-Asp-Glu-Val-Asp)-N′-(2,3,4,5-tetrafluorobenzoyl)-Rhodamine 110]
[1]; 10 μM substrate, recombinant caspase-3, 3 hours at 37° C.
  increase in fluorescence over background and non-specific values: roughly 50 fold
[2]; anti-Fas antibody 200 ng/ml 2 hrs, then 50 μM substrate 2 hrs at 37° C.
  cleavage of substrate under whole cell assay conditions, anti-Fas antibody induced apoptosis: cleavage
[2]; staurosporine 0.5 μg/ml 2 hrs, then 50 μM substrate 2 hrs at 37° C.
  cleavage of substrate under whole cell assay conditions, staurosporine induced apoptosis: cleavage

## O=C(CNC(=O)OCc1ccccc1)Nc1ccc2c(c1)Oc1cc(NC(=O)c3c(F)c(F)c(F)c(F)c3F)ccc1C21OC(=O)c2ccccc21 (stereo not drawn) [N-Cbz-Gly-R110-PFB, N-(Z-Gly)-N′-pentafluorobenzoyl-Rhodamine 110]
[3]
  fluorescent signal after incubation with cell lysate: did not give a signal
  fluorescent signal after incubation with buffer only (no lysate): did not give a signal
[4]
  fluorescence of whole cells incubated with substrate: did not fluoresce above background levels

## Br.NCC(=O)Nc1ccc2c(c1)Oc1cc(NC(=O)c3c(F)c(F)c(F)c(F)c3F)ccc1C21OC(=O)c2ccccc21 (stereo not drawn) [N-Gly-R110-PFB, N-Gly-N′-pentafluorobenzoyl-Rhodamine 110 HBr]
[3]
  fluorescent signal after incubation with cell lysate: strong fluorescent signal
  fluorescent signal after incubation with buffer only (no lysate): very weak fluorescent signal
[4]
  fluorescence of whole cells incubated with substrate: strong, homogeneously distributed, yellowish-green fluorescence

## Nc1ccc2c(c1)Oc1cc(NC(=O)c3c(F)c(F)c(F)c(F)c3F)ccc1C21OC(=O)c2ccccc21 (stereo not drawn) [N-pentafluorobenzoyl-Rhodamine 110, N-Pentafluorobenzoyl-Rhodamine 110]
[5]; cell-free conditions
  fluorescence compared to Rhodamine 110: weaker fluorescent dye compared to Rhodamine 110

## Cl.N=c1ccc2c(-c3ccccc3C(=O)O)c3ccc(N)cc3oc-2c1 [Rhodamine 110, reference compound]
[5]; each concentration tested, 0.5 to 20 μM, cell-free
  higher fluorescence of R110 than N-pentafluorobenzoyl-Rhodamine 110: 20 to 50 fold

## CC(C)[C@H](NC(=O)[C@H](CCC(=O)O)NC(=O)[C@H](CC(=O)O)NC(=O)OCc1ccccc1)C(=O)N[C@@H](CC(=O)O)C(=O)Nc1ccc2c(c1)Oc1cc(NC(=O)c3c(F)c(F)c(F)c(F)c3F)ccc1C21OC(=O)c2ccccc21 (stereo partly drawn) [Z-DEVD-R110-PFB, N-(Z-Asp-Glu-Val-Asp)-N′-pentafluorobenzoyl-Rhodamine 110]
[1]; recombinant caspase-3
  increase in fluorescence over the uncleaved substrate: greater than 10 fold
[6]
  cleavage by lysate from apoptotic HL-60 cells: readily cleaved

## CC(C)[C@H](NC(=O)OCc1ccccc1)C(=O)NC(CC(=O)O)C(=O)CF (stereo partly drawn) [cbz-Val-Asp-fink]
[2]; staurosporine 0.5 μg/ml, 2 hrs
  inhibition of staurosporine induced cleavage of Ac-DEVD-R110-TFB in whole cells: can be inhibited by the pan-caspase inhibitor

## CN[C@@H]1C[C@H]2O[C@@](C)([C@@H]1OC)n1c3ccccc3c3c4c(c5c6ccccc6n2c5c31)C(=O)NC4 [staurosporine]
[2]; inducer at 0.5 μg/ml, 2 hrs
  induction of apoptosis read out as cleavage of Ac-DEVD-R110-TFB: leads to cleavage of the caspase-3 substrate
